Columns and labels:
yeast α-glucosidase [1] = target: T1, yeast α-glucosidase (Saccharomyces cerevisiae, UniProt P53341); assay: In vitro α-glucosidase inhibition assay; assay type: biochemical; settings: for inhibitory activity against α-glucosidase (in words): SAR discussion; for potency relative to acarbose: fold more potent than acarbose, from IC50 values
T1 construct: purchased Sigma-Aldrich
Protocol: Appropriate enzyme concentration was obtained in potassium phosphate buffer (pH 6.8, 50 mM), and coumarin-indole hybrids 4a–m were dissolved in DMSO (10% final concentration). […] The percentage of enzyme inhibition (% Inhibition) for each sample was calculated by using the following formula: %Inhibition=[(Abs control-Abs sample)/Abs control]×100
IC50 values were calculated from non-linear regression curve using by the Logit method.

yeast α-glucosidase [2] = target: T1, yeast α-glucosidase; assay: Kinetic study (Lineweaver–Burk plot) on α-glucosidase; assay type: biochemical
Protocol: To determine the mechanism of α-glucosidase inhibition of the newly synthesized compounds, the kinetic study was performed on compound 4d as representative compound. The relative velocity of the α-glucosidase was determined on four increasing concentrations of the p-nitrophenyl glucopyranoside as substrate. […] Then, the Lineweaver-Burke plot was depicted using the reciprocal of velocity and substrate concentration (Fig. 2a).
Fig. 2 Kinetic study of compound 4d into α-glucosidase. a The Lineweaver–Burk plot in the absence and presence of different concentrations of compound 4d; b The secondary plot between Km and various concentrations of compound 4d
Appropriate enzyme concentration was obtained in potassium phosphate buffer (pH 6.8, 50 mM), and coumarin-indole hybrids 4a–m were dissolved in DMSO (10% final concentration). The potassium phosphate buffer (135 µL), various concentrations of the target compounds 4a–m (20 µL), and prepared enzyme solution (20 µL) were added to the 96-well plate and the later mixture was incubated for 10 min at 37 °C. […] Finally, the change in absorbance of the final mixture was measured at 405 nm by using spectrophotometer (Gen5, Power wave xs2, BioTek, America). […] The percentage of enzyme inhibition (% Inhibition) for each sample was calculated by using the following formula: %Inhibition=[(Abs control-Abs sample)/Abs control]×100

T1 sequence (P53341 whole entry): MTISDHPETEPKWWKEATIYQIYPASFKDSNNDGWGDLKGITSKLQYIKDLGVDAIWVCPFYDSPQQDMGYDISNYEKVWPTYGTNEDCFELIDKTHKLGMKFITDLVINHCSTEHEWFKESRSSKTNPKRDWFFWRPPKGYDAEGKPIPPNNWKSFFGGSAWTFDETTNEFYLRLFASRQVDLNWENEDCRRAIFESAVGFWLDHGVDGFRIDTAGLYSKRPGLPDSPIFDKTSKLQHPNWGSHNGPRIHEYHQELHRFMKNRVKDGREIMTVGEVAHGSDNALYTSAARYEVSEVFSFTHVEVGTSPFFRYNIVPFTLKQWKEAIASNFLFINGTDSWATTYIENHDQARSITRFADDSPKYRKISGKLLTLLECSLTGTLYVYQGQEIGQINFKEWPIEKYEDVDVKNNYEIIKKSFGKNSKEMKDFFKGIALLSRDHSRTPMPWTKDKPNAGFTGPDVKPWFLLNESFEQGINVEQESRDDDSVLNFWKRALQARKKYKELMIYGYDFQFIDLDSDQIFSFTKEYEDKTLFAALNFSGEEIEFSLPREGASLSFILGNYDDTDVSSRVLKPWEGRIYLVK

SMILES | IC50 (yeast α-glucosidase [1]) [µM] | inhibitory activity against α-glucosidase (in words) (yeast α-glucosidase [1]) | melting point [°C] | potency relative to acarbose (yeast α-glucosidase [1]) | Ki (yeast α-glucosidase [2]) [µM] | type of inhibition (yeast α-glucosidase [2]; Lineweaver–Burk plot, inhibitor 0, 28, 58 and 116 µM)
O=c1oc2ccccc2c(O)c1C(c1ccc(F)cc1)c1c[nH]c2ccccc12 (stereo not drawn) [Compound 4h, 3-((4-Fluorophenyl)(1H-indol-3-yl)methyl)-4-hydroxy-2H-chromen-2-one] | 474.9 ± 2.6 | dramatically decrease in inhibitory activity | 243 to 245 | – | – | –
COc1ccc(C(c2c(O)c3ccccc3oc2=O)c2c[nH]c3ccccc23)cc1 (stereo not drawn) [Compound 4c, 3-((1H-indol-3-yl)(4-methoxyphenyl)methyl)-4-hydroxy-2H-chromen-2-one] | 170 ± 2.1 | – | 246 to 248 | – | – | –
O=c1oc2ccccc2c(O)c1C(c1cccc(F)c1)c1c[nH]c2ccccc12 (stereo not drawn) [Compound 4g, 3-((3-Fluorophenyl)(1H-indol-3-yl)methyl)-4-hydroxy-2H-chromen-2-one] | 174 ± 2.3 | – | 222 to 224 | – | – | –
O=c1oc2ccccc2c(O)c1C(c1cccc(O)c1)c1c[nH]c2ccccc12 (stereo not drawn) [Compound 4e, 4-Hydroxy-3-((3-hydroxyphenyl)(1H-indol-3-yl)methyl)-2H-chromen-2-one] | > 750 | loss of effect | 200 to 202 | – | – | –
O=c1oc2ccccc2c(O)c1C(c1cccc(Cl)c1)c1c[nH]c2ccccc12 (stereo not drawn) [Compound 4i, 3-((3-Chlorophenyl)(1H-indol-3-yl)methyl)-4-hydroxy-2H-chromen-2-one] | > 750 | loss of effect | 205 to 207 | – | – | –
O=c1oc2ccccc2c(O)c1C(c1ccccc1)c1c[nH]c2ccccc12 (stereo not drawn) [Compound 4a, 3-((1H-indol-3-yl)(phenyl)methyl)-4-hydroxy-2H-chromen-2-one] | 118 ± 3.1 | – | 231 to 233 | around sixfold | – | –
O=c1oc2ccccc2c(O)c1C(c1cccc([N+](=O)[O-])c1)c1c[nH]c2ccccc12 (stereo not drawn) [Compound 4m, 3-((1H-indol-3-yl)(3-nitrophenyl)methyl)-4-hydroxy-2H-chromen-2-one] | 180.5 ± 1.4 | – | 198 to 200 | – | – | –
Cc1ccc(C(c2c(O)c3ccccc3oc2=O)c2c[nH]c3ccccc23)cc1 (stereo not drawn) [Compound 4b, 3-((1H-indol-3-yl)(p-tolyl)methyl)-4-hydroxy-2H-chromen-2-one] | 167.5 ± 0.8 | – | 269 to 271 | – | – | –
O=c1oc2ccccc2c(O)c1C(c1cccc(Oc2ccccc2)c1)c1c[nH]c2ccccc12 (stereo not drawn) [Compound 4d, 3-((1H-indol-3-yl)(3-phenoxyphenyl)methyl)-4-hydroxy-2H-chromen-2-one] | 116 ± 0.7 | – | 183 to 185 | around sixfold | 148 | competitive type of inhibition
O=c1oc2ccccc2c(O)c1C(c1ccc(Cl)cc1)c1c[nH]c2ccccc12 (stereo not drawn) [Compound 4j, 3-((4-Chlorophenyl)(1H-indol-3-yl)methyl)-4-hydroxy-2H-chromen-2-one] | 230 ± 2.3 | – | 235 to 237 | – | – | –
O=c1oc2ccccc2c(O)c1C(c1ccc(O)cc1)c1c[nH]c2ccccc12 (stereo not drawn) [Compound 4f, 4-Hydroxy-3-((4-hydroxyphenyl)(1H-indol-3-yl)methyl)-2H-chromen-2-one] | > 750 | loss of effect | 286 to 288 | – | – | –
O=c1oc2ccccc2c(O)c1C(c1cccc(Br)c1)c1c[nH]c2ccccc12 (stereo not drawn) [Compound 4k, 3-((3-Bromophenyl)(1H-indol-3-yl)methyl)-4-hydroxy-2H-chromen-2-one] | > 750 | did not show activity | 212 to 214 | – | – | –
O=c1oc2ccccc2c(O)c1C(c1ccccc1[N+](=O)[O-])c1c[nH]c2ccccc12 (stereo not drawn) [Compound 4l, 3-((1H-indol-3-yl)(2-nitrophenyl)methyl)-4-hydroxy-2H-chromen-2-one] | > 750 | completely abolished anti-α-glucosidase activity | 240 to 242 | – | – | –

Reference: publication PMC9635080, “Design, synthesis, in vitro, and in silico biological evaluations of coumarin-indole hybrids as new anti-α-glucosidase agents” (BMC Chemistry, 2022)
